This is an account of results in patent US20210292333A1, “CONDENSED AZAHETEROARYL COMPOUNDS HAVING ANTIBACTERIAL ACTIVITY AGAINST TU[…]” (CADILA HEALTHCARE LIMITED, priority 2018, published 2021).

Converted amounts (≈) assume the structure as drawn.

In series [1] the test system is Mycobacterium tuberculosis H37Rv. Put plainly: Minimum Inhibitory Concentration (MIC) determination, MABA assay. It counts as cell-based. Conditions: 168 h, 7H9 medium, 7 days at 37° C., alamar blue, read-out: Mtb MIC. On the procedure: To assess the bacterial growth inhibitory effect of the compounds of the invention, MABA assay was performed with log phase culture of Mycobacterium tuberculosis H37Rv. Bacterial culture of optical density 0.6-0.8 was diluted to final density of 0.02 in 7H9 medium. 100 μl of diluted Mycobacterium tuberculosis H37Rv was incubated with the test compounds in microtiter plate. A drug free control containing DMSO also was also prepared. Following incubation of the compound with culture for 7 days at 37° C., 20 μl of 0.02% alamar blue (freshly prepared) was added in each well. The color was allowed to develop for 16 h at 37° C. Blue color in the well indicated no growth whereas pink color signifies growth in the well. MIC value is defined as the lowest concentration that prevents the color change from blue to pink. Fluorescence was measured at excitation at 530 nm and emission at 590 nm.
(In general: Resazurin is reduced to fluorescent resorufin, in cell work by metabolically active cells.)

Series [2] can be described thus: Pharmacokinetics of the compounds in mice (IV and oral single dose). It counts as in vivo. Conditions: mouse, plasma, Balb/c mice; for bioavailability: PO 3 mg/kg vs IV 1 mg/kg, read-out: F(%) absolute oral bioavailability; for AUC(0-t) / Cmax: single dose, Oral (PO) 3 mg/kg suspension, IV 1 mg/kg, route not given. On the procedure: Balb/c mice were obtained from Zydus Research Centre, Ahmedabad India, AAALAC Accreditation. All animals were housed in temperature-control rooms with appropriate light/dark cycles. The animals were overnight fasted before oral gavage dosing but were given access to water ad libitum. Food was provided 4 h after dosing. All animal studies were conducted according to protocols reviewed and approved by the Institutional Animal Care and Ethics Committee at the Zydus Research Centre. Compounds were dosed as a solution in 10% NMP and 10% solutol in Normal Saline (Intravenous (IV), 1 mg/kg) and homogenous suspension (Oral (PO), 3 mg/kg) in 0.5% Tween 80 in 0.5% methyl cellulose as a single dose in mice. For mouse composite PK profile was generated. Blood samples were collected at 0.08 (IV only), 0.25, 0.5, 1, 2, 4, 6, 7.5, and 24 h post-dose in Na-heparin coated micro centrifuge tubes. Blood samples were centrifuged to separate plasma which were then stored at −70° C. until analysis. PK parameters were calculated by non-compartmental analysis using Phoenix (Pharsight Corp., Mountain View, Calif.). A model was selected based on the vascular (IV bolus) or extravascular (PO) routes of administration. For the PO route, concentration at time zero was assumed to be zero. Plasma concentrations below the limit of quantitation were treated as zero concentration for the purpose of calculating the mean plasma concentration values. Pharmacokinetic parameters such as maximum plasma concentration (Cmax), area under the curve of concentration over the time (AUC (0-t)) and absolute oral bioavailability (F (%)) of the selected compounds are shown in Table 3.

As for `COc1ncnc(Cn2nc(C(=O)NCC3(O)CC3)c3ncc(C)cc32)c1C` [Example 1, N-((1-hydroxycyclopropyl)methyl)-1-((6-methoxy-5-methylpyrimidin-4-yl)methyl)-6-methyl-1H-pyrazolo[4,3-b]pyridine-3-carboxamide], the MIC in series [1] was 1.25 µM (≈ 0.478 µg/mL). Moreover, in series [2], the bioavailability is 100%, the AUC(0-t) stood at 2850 ng·h/mL and the highest level (Cmax) was 1730 ng/mL.
In the same order, the values of `CCOc1ncnc(Cn2nc(C(=O)NCC3(O)CC3)c3ncc(C)cc32)c1C` [Example 3, 1-((6-ethoxy-5-methylpyrimidin-4-yl)methyl)-N-((1-hydroxycyclopropyl)methyl)-6-methyl-1H-pyrazolo[4,3-b]pyridine-3-carboxamide] are ≤ 0.625 µM, 100%, 2810 ng·h/mL and 2720 ng/mL.
As for `COc1nc(C)ccc1Cn1nc(C(=O)NCC2(O)CC2)c2ncc(C)cc21` [Example 9, N-((1-hydroxycyclopropyl)methyl)-1-((2-methoxy-6-methylpyridin-3-yl)methyl)-6-methyl-1H-pyrazolo[4,3-b]pyridine-3-carboxamide], in series [2], the bioavailability turned out to be 78%, the AUC(0-t) is 2160 ng·h/mL and the Cmax amounted to 1570 ng/mL.
Consider `COCCNC(=O)c1nn(Cc2ncnc(OC)c2C)c2cc(C)cnc12` [Example 10, 1-((6-methoxy-5-methylpyrimidin-4-yl)methyl)-N-(2-methoxyethyl)-6-methyl-1H-pyrazolo[4,3-b]pyridine-3-carboxamide], for which the MIC in series [1] came out at 5 µM (≈ 1.85 µg/mL). Moreover, in series [2], the bioavailability turned out to be 100%, the AUC(0-t) stood at 5130 ng·h/mL and the Cmax amounted to 4000 ng/mL.
As to `COc1ncnc(Cn2cc(C(=O)NCC3(O)CC3)c3ncc(C)nc32)c1C` [Example 11, N-((1-hydroxycyclopropyl)methyl)-5-((6-methoxy-5-methylpyrimidin-4-yl)methyl)-3-methyl-5H-pyrrolo[2,3-b]pyrazine-7-carboxamide], the MIC in series [1] came to 0.5 µM (≈ 0.191 µg/mL). Moreover, in series [2], the bioavailability was 100%, the AUC(0-t) was 2570 ng·h/mL and the Cmax is 1660 ng/mL.
For `COc1cnc2c(C(=O)NCC3(O)CC3)cn(Cc3ncnc(OC)c3C)c2n1` [Example 12, N-((1-hydroxycyclopropyl)methyl)-3-methoxy-5-((6-methoxy-5-methylpyrimidin-4-yl)methyl)-5H-pyrrolo[2,3-b]pyrazine-7-carboxamide], the MIC in series [1] is 0.25 µM (≈ 0.0996 µg/mL). Further, in series [2], the bioavailability was found to be 100%, the AUC(0-t) turned out to be 2920 ng·h/mL and the Cmax was 1720 ng/mL.
On to `CCOc1ncnc(Cn2cc(C(=O)NCC3(O)CC3)c3ncc(C)nc32)c1C` [Example 13, 5-((6-ethoxy-5-methylpyrimidin-4-yl)methyl)-N-((1-hydroxycyclopropyl)methyl)-3-methyl-5H-pyrrolo[2,3-b]pyrazine-7-carboxamide], for which the MIC in series [1] was determined as 0.25 µM (≈ 0.0991 µg/mL). For the same compound, in series [2], the bioavailability was 100%, the AUC(0-t) stood at 2150 ng·h/mL and the maximum concentration (Cmax) was 1320 ng/mL.
For the compound `COc1ncnc(Cn2nc(C(=O)NCC3(O)CC3)c3ncc(C)nc32)c1C` [Example 14, N-((1-hydroxycyclopropyl)methyl)-1-((6-methoxy-5-methylpyrimidin-4-yl)methyl)-6-methyl-1H-pyrazolo[3,4-b]pyrazine-3-carboxamide], in series [2], the bioavailability was determined as 90%, the area under the curve AUC(0-t) worked out at 1680 ng·h/mL and the Cmax turned out to be 1600 ng/mL.
Take `COc1ncnc(Cn2cc(C(=O)NCC3(O)CC3)c3ncc(C)cc32)c1C` [Example 85, N-((1-hydroxycyclopropyl)methyl)-1-((6-methoxy-5-methylpyrimidin-4-yl)methyl)-6-methyl-1H-pyrrolo[3,2-b]pyridine-3-carboxamide]: in series [1], the MIC was ≤ 0.0625 µM. In addition, in series [2], the bioavailability worked out at 94%, the AUC(0-t) amounted to 2180 ng·h/mL and the Cmax is 1470 ng/mL.

As usually defined, the MIC is the lowest concentration found to suppress growth. Broadly, the bioavailability is dose-corrected exposure relative to a reference, in per cent. What is called AUC(0-t) is the area under the concentration-time curve up to a stated or last time point. Higher therefore signals high exposure. What is called Cmax is the maximum level reached in the sampled fluid or tissue.
